According to patent US20100016401A1, “3-AZA-BICYCLO[3.1.0]HEXANE DERIVATIVES” (Actelion Phamaceuticals Ltd., priority 2006, published 2010):

Experiments:
human orexin-1 receptor = biological target: T1, human orexin-1 receptor (Homo sapiens, UniProt O43613); experiment: Intracellular calcium measurements (FLIPR), orexin receptor antagonistic activity, OX1; type: cell-based; settings: CHO cells expressing human orexin-1 receptor, 10 nM orexin-A as agonist
T1 construct: expressed in transfected cells; host or cells: CHO (Chinese hamster ovary) cells, grown under G418 selection
T1 sequence (O43613 1-425): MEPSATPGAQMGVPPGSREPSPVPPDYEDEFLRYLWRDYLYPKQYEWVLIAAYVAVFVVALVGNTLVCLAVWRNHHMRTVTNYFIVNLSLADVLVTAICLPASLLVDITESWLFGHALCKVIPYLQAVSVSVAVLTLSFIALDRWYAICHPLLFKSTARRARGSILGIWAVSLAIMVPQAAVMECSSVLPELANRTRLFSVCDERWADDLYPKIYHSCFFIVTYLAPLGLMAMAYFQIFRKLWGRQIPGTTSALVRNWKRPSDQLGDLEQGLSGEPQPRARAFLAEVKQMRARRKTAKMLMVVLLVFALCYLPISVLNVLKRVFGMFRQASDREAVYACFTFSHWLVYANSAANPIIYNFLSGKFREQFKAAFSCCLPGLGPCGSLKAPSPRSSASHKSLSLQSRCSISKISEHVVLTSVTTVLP
Procedure: (§1) The orexin receptor antagonistic activity of the compounds of formula (I) is determined in accordance with the following experimental method.
(§2) Intracellular Calcium Measurements:
(§3) Chinese hamster ovary (CHO) cells expressing the human orexin-1 receptor and the human orexin-2 receptor, respectively, are grown in culture medium (Ham F-12 with L-Glutamine) containing 300 μg/ml G418, 100 U/ml penicillin, 100 μg/ml streptomycin and 10% inactivated fetal calf serum (FCS). The cells are seeded at 80,000 cells/well into 96-well black clear bottom sterile plates (Costar) which have been precoated with 1% gelatine in Hanks' Balanced Salt Solution (HBSS). All reagents are from Gibco BRL. The seeded plates are incubated overnight at 37° C. in 5% CO2.
(§4) Human orexin-A as an agonist is prepared as 1 mM stock solution in MeOH: water (1:1), diluted in HBSS containing 0.1% bovine serum albumin (BSA) and 2 mM HEPES for use in the assay at a final concentration of 10 nM.
(§5) Antagonists are prepared as 10 mM stock solution in DMSO, then diluted in 96-well plates, first in DMSO, then in HBSS containing 0.1% bovine serum albumin (BSA) and 2 mM HEPES.
(§6) On the day of the assay, 100 μl of loading medium (HBSS containing 1% FCS, 2 mM HEPES, 5 mM probenecid (Sigma) and 3 μM of the fluorescent calcium indicator fluo-3 AM (1 mM stock solution in DMSO with 10% pluronic acid) (Molecular Probes) is added to each well.
(§7) The 96-well plates are incubated for 60 min at 37° C. in 5% CO2. The loading solution is then aspirated and cells are washed 3 times with 200 μl HBSS containing 2.5 mM probenecid, 0.1% BSA, 2 mM HEPES. 100 μl of that same buffer is left in each well.
(§8) Within the Fluorescent Imaging Plate Reader (FLIPR, Molecular Devices), antagonists are added to the plate in a volume of 50 μl, incubated for 20 min and finally 100 μl of agonist is added. Fluorescence is measured for each well at 1 second intervals, and the height of each fluorescence peak is compared to the height of the fluorescence peak induced by 10 nM orexin-A with buffer in place of antagonist.

human orexin-2 receptor = biological target: T2, human orexin-2 receptor (Homo sapiens, UniProt O43614); experiment: Intracellular calcium measurements (FLIPR), orexin receptor antagonistic activity, OX2; type: cell-based; settings: CHO cells expressing human orexin-2 receptor, 10 nM orexin-A as agonist
T2 construct: expressed in transfected cells; host or cells: CHO (Chinese hamster ovary) cells, grown under G418 selection
T2 sequence (O43614 1-444): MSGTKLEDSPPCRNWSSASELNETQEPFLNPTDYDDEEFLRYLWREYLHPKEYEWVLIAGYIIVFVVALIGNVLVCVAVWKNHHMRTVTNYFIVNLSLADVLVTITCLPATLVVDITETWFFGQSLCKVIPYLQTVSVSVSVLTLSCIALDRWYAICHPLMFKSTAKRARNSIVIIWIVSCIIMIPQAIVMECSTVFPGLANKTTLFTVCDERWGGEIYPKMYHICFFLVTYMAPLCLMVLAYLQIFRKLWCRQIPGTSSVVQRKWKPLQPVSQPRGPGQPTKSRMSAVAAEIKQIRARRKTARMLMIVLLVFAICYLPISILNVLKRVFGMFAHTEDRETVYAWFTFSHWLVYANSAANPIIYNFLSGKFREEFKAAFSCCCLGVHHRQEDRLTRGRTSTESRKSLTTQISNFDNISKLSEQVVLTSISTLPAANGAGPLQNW
Procedure: as §1, §2, §3, §4, §5, §6, §7, §8

IC50 (human orexin-1 receptor) | IC50 (human orexin-2 receptor) | Compound
241 nM | 196 nM | Cc1cccc(-c2sc(C)nc2C(=O)N2C[C@H]3C[C@H]3[C@H]2CNC(=O)c2cccc3c2CCCO3)c1 (relative stereo) [Example 182, Chroman-5-carboxylic acid [(1R*,2S*,5S*)-3-(2-methyl-5-m-tolyl-thiazole-4-carbonyl)-3-aza-bicyclo[3.1.0]hex-2-ylmethyl]-amide]
93 nM | 124 nM | Cc1cccc(-c2sc(C)nc2C(=O)N2C[C@H]3C[C@H]3[C@H]2CNC(=O)c2cn(C)c3ccccc23)c1 (relative stereo) [Example 114, 1-Methyl-1H-indole-3-carboxylic acid [(1R*,2S*,5S*)-3-(2-methyl-5-m-tolyl-thiazole-4-carbonyl)-3-aza-bicyclo[3.1.0]hex-2-ylmethyl]-amide]
90 nM | 154 nM | Cc1cccc(-c2sc(C)nc2C(=O)N2C[C@H]3C[C@H]3[C@H]2CNC(=O)c2cccc3c2NC(=O)CO3)c1 (relative stereo) [Example 181, 3-Oxo-3,4-dihydro-2H-benzo[1,4]oxazine-5-carboxylic acid [(1R*,2S*,5S*)-3-(2-methyl-5-m-tolyl-thiazole-4-carbonyl)-3-aza-bicyclo[3.1.0]hex-2-ylmethyl]-amide]
963 nM | 59 nM | Cc1nc(C(=O)N2C[C@H]3C[C@H]3[C@H]2CNC(=O)c2cccc3c2OCO3)c(-c2cccc(F)c2)s1 (relative stereo) [Example 242, Benzo[1,3]dioxole-4-carboxylic acid {(1R*,2S*,5S*)-3-[5-(3-fluoro-phenyl)-2-methyl-thiazole-4-carbonyl]-3-aza-bicyclo[3.1.0]hex-2-ylmethyl}-amide]
954 nM | 172 nM | COCCOc1cccc(-c2sc(C)nc2C(=O)N2C[C@H]3C[C@H]3[C@H]2CNC(=O)c2cccc3occc23)c1 (relative stereo) [Example 333, Benzofuran-4-carboxylic acid ((1R*,2S*,5S*)-3-{5-[3-(2-methoxy-ethoxy)-phenyl]-2-methyl-thiazole-4-carbonyl}-3-aza-bicyclo[3.1.0]hex-2-ylmethyl)-amide]
37 nM | 17 nM | Cc1nc(C(=O)N2C[C@H]3C[C@H]3[C@H]2CNC(=O)c2cnc3sccn23)c(-c2cccc(F)c2)s1 (relative stereo) [Example 214, Imidazo[2,1-b]thiazole-5-carboxylic acid {(1R*,2S*,5S*)-3-[5-(3-fluoro-phenyl)-2-methyl-thiazole-4-carbonyl]-3-aza-bicyclo[3.1.0]hex-2-ylmethyl}-amide]
42 nM | 92 nM | Cc1nc(C(=O)N2C[C@H]3C[C@H]3[C@H]2CNC(=O)c2cnc3ccccn23)c(-c2cccc(Cl)c2)s1 (relative stereo) [Example 203, Imidazo[1,2-a]pyridine-3-carboxylic acid {(1R*,2S*,5S*)-3-[5-(3-chloro-phenyl)-2-methyl-thiazole-4-carbonyl]-3-aza-bicyclo[3.1.0]hex-2-ylmethyl}-amide]
158 nM | 348 nM | Cc1nc2sccn2c1C(=O)NC[C@@H]1[C@@H]2C[C@@H]2CN1S(=O)(=O)c1ccccc1OC(F)(F)F (relative stereo) [Example 3, 6-methyl-imidazo[2,1-b]thiazole-5-carboxylic acid [(1R*,2S*,5S*)-3-(2-trifluoromethoxy-benzenesulfonyl)-3-aza-bicyclo[3.1.0]hex-2-ylmethyl]-amide]
98 nM | 102 nM | Cc1cccc(-c2sc(C)nc2C(=O)N2C[C@H]3C[C@H]3[C@H]2CNC(=O)c2cccc(C(F)(F)F)c2)c1 (relative stereo) [Example 125, N-[(1R*,2S*,5S*)-3-(2-Methyl-5-m-tolyl-thiazole-4-carbonyl)-3-aza-bicyclo[3.1.0]hex-2-ylmethyl]-3-trifluoromethyl-benzamide]
